Source: ChEMBL document CHEMBL1649150, “P-glycoprotein-mediated transport of moxifloxacin in a Calu-3 lung epithelial cell model” (Antimicrob Agents Chemother, 2009)

How the values were obtained:
[1] = Apparent passive permeability across human Calu3 cells at 350 ug/ml; format: ADME, cell-based, Calu-3
P-glycoprotein [2] = experiment: P-glycoprotein-mediated transport in human Calu3 cells expressing P-glycoprotein assessed as minimum apparent permeability from basolateral to apical side; format: ADME, cell-based, Calu-3
P-glycoprotein [3] = experiment: (§1) P-glycoprotein-mediated transport in human Calu3 cells expressing P-glycoprotein assessed as maximum apparent permeability from basolateral to apical side at 50 uM; format: ADME, cell-based, Calu-3
[4] = as §1; format: ADME, cell-based, Calu-3; details: calu-3, 50 µM, TDE = time-dependent effect
P-glycoprotein [5] = experiment: P-glycoprotein-mediated transport in human Calu3 cells expressing P-glycoprotein assessed as maximum apparent permeability from basolateral to apical side at 50 uM in presence of in presence of 25 uM of p-glycoprotein and MRP transport inducer rifampin; format: ADME, cell-based, Calu-3
P-glycoprotein [6] = experiment: P-glycoprotein-mediated transport in human Calu3 cells expressing P-glycoprotein assessed as maximum apparent permeability from apical to basolateral side at 50 uM in presence of in presence of 10 uM of p-glycoprotein and MRP transport inducer rifampin; format: ADME, cell-based, Calu-3
P-glycoprotein [7] = experiment: P-glycoprotein-mediated transport in human Calu3 cells expressing P-glycoprotein assessed as maximum apparent permeability from apical to basolateral side at 50 uM in presence of in presence of 25 uM of p-glycoprotein and MRP transport inducer rifampin; format: ADME, cell-based, Calu-3
[8] = Apparent passive permeability across human Calu3 cells at < 10 ug/ml; format: ADME, cell-based, Calu-3
P-glycoprotein [9] = experiment: P-glycoprotein-mediated transport in human Calu3 cells expressing P-glycoprotein assessed as maximum apparent permeability from basolateral to apical side at 50 uM in presence of in presence of 10 uM of p-glycoprotein and MRP transport inducer rifampin; format: ADME, cell-based, Calu-3
P-glycoprotein [10] = experiment: Activity at P-glycoprotein in human Calu3 cells; format: ADME, cell-based, Calu-3
[11] = Cmax in healthy human at 400 […]; format: ADME, organism-based; details: in vivo
P-glycoprotein [12] = experiment: P-glycoprotein-mediated transport in human Calu3 cells expressing P-glycoprotein assessed as maximum apparent permeability from basolateral to apical side; format: ADME, cell-based, Calu-3
[13] = P-glycoprotein-mediated transport in human Calu3 cells assessed as efflux ratio of permeability from […] side at 50 uM; format: ADME, cell-based; details: calu-3, 50 µM
P-glycoprotein [14] = experiment: (§2) P-glycoprotein-mediated transport in human Calu3 cells expressing P-glycoprotein assessed as maximum apparent permeability from apical to basolateral side at 50 uM; format: ADME, cell-based, Calu-3
[15] = as §2; format: ADME, cell-based, Calu-3; details: calu-3, 50 µM, TDE = time-dependent effect

Papp at 350 ug/ml [1]: 7.9 ×10⁻⁶ cm/s
Papp B→A (P-glycoprotein [2]): 7.9 ×10⁻⁶ cm/s
Papp B→A at 50 µM (P-glycoprotein [3]): 10.5 ×10⁻⁶ cm/s
Papp [4]: tde
Papp B→A at 50 µM (P-glycoprotein [5]): 12.5 ×10⁻⁶ cm/s
Papp A→B at 50 µM (P-glycoprotein [6]): 4.35 ×10⁻⁶ cm/s
Papp A→B at 50 µM (P-glycoprotein [7]): 4.08 ×10⁻⁶ cm/s
Papp [8]: 13.6 ×10⁻⁶ cm/s
Papp B→A at 50 µM (P-glycoprotein [9]): 11.9 ×10⁻⁶ cm/s
Km (P-glycoprotein [10]): 64.6 µg/mL
Cmax [11]: 5000 ng/mL
Papp B→A (P-glycoprotein [12]): 13.6 ×10⁻⁶ cm/s
Ratio [13]: 2
Papp A→B at 50 µM (P-glycoprotein [14]): 5.25 ×10⁻⁶ cm/s
Papp [15]: tde
Structure (SMILES): COc1c(N2C[C@@H]3CCCN[C@@H]3C2)c(F)cc2c(=O)c(C(=O)O)cn(C3CC3)c12 [MOXIFLOXACIN]
